From patent publication US12692254B2, “Benzimidazole inhibitors of PAD enzymes” (BRISTOL-MYERS SQUIBB COMPANY, priority 2018, dated 2026)
pIC50: −log10 of the molar value.

Biological target: human PAD4 (hPAD4) (Homo sapiens, UniProt Q9UM07)
Experiment: RFMS human PAD4 functional assay (rapid-fire mass spectrum)
Type: biochemical
Conditions: 5 nM hPAD4 enzyme, 250 μM BAEE, 50 μM Calcium; 30 min preincubation, 90 min reaction at 37° C.
Procedure, shortened: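 PAD4 (10 nM) preincubated 30 min with compound (top final 50 μM), then BAEE substrate added in pH 7.5 HEPES buffer with DTT, 50 μM calcium, TPEN; 90 min at 37° C. After TCA quench, citrulline derivatized with phenyl glyoxal (4 mM final, 30 min, 37° C) and quantified by RapidFire MS against internal standard.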

Sequence of human PAD4 (hPAD4) (Q9UM07 whole entry): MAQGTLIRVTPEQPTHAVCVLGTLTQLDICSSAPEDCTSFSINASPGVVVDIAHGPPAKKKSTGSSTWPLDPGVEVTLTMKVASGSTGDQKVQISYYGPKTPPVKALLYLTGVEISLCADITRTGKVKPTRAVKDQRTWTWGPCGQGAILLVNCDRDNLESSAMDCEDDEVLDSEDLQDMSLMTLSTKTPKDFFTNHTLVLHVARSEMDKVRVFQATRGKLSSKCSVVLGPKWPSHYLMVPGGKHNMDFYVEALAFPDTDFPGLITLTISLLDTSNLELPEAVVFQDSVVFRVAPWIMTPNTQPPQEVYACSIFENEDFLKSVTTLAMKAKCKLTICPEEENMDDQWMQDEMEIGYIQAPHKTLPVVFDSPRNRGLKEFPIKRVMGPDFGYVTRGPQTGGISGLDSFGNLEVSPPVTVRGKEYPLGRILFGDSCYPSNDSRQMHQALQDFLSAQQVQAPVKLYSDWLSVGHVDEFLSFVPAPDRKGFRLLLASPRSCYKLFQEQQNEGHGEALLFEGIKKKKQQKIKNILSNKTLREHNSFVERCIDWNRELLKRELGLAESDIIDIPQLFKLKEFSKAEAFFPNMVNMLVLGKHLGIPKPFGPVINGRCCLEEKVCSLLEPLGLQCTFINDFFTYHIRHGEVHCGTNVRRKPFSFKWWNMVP

Question: `COc1cc(C(=O)N2CC3CCC2[C@@H]3N)cc2nc(-c3cc4cccnc4n3CC3CC3)n(C3CCN(c4ccnc(C#N)n4)CC3)c12` (stereo partly drawn) [Example 237, 4-(4-{5-[(1R,4R,7R)-7-amino-2-azabicyclo[2.2.1]heptane-2-carbonyl]-2-[1-(cyclopropylmethyl)-1H-pyrrolo[2,3-b]pyridin-2-yl]-7-methoxy-1H-1,3-benzodiazol-1-yl}piperidin-l-yl)pyrimidine-2-carbonitrile] was tested. Which pIC50 did it give?
Answer: The pIC50 was 6.27.

Question: `Cn1cc(Cn2c(-c3cc4cccnc4n3CC3CC3)nc3cc(C(=O)N4CC5CCC4[C@@H]5N)cc(F)c32)cn1` (stereo partly drawn) [Example 491, (7R)-2-{2-[1-(cyclopropylmethyl)-1H-pyrrolo[2,3-b]pyridin-2-yl]-7-fluoro-1-[(1-methyl-1H-pyrazol-4-yl)methyl]-1H-1,3-benzodiazole-5-carbonyl}-2-azabicyclo[2.2.1]heptan-7-amine] was tested. Which pIC50 did it give?
Answer: Its pIC50 is 7.24.

Question: `COc1cc(C(=O)N2C[C@H]3CC[C@@H]2[C@@H]3N)cc2nc(-c3cc4cccnc4n3CC3CC3)n(CC3CN(C(=O)C#Cc4ccccc4)C3)c12` [Example 109, 1-[3-({5-[(1R,4R,7R)-7-amino-2-azabicyclo[2.2.1]heptane-2-carbonyl]-2-[1-(cyclopropylmethyl)-1H-pyrrolo[2,3-b]pyridin-2-yl]-7-methoxy-1H-1,3-benzodiazol-1-yl}methyl)azetidin-1-yl]-3-phenylprop-2-yn-1-one] was tested. Which pIC50 did it give?
Answer: Its pIC50 is 7.39.

Question: How did the pIC50 turn out when `COc1cc(C(=O)N2CC3CCC2[C@@H]3N)cc2nc(-c3cc4ccccc4n3CC3CC3)n(Cc3ccn(C)n3)c12` (stereo partly drawn) [Example 498, (7R)-2-{2-[1-(cyclopropylmethyl)-1H-indol-2-yl]-7-methoxy-1-[(1-methyl-1H-pyrazol-3-yl)methyl]-1H-1,3-benzodiazole-5-carbonyl}-2-azabicyclo[2.2.1]heptan-7-amine] was run?
Answer: Its pIC50 is 7.04.

Question: With `COc1cc(C(=O)N2CC3CCC2[C@@H]3N)cc2nc(-c3cc4ccccc4n3CC3CC3)n(Cc3cnn(-c4cc(F)cnc4O)c3)c12` (stereo partly drawn) [Example 376, 3-[4-({5-[(7R)-7-amino-2-azabicyclo[2.2.1]heptane-2-carbonyl]-2-[1-(cyclopropylmethyl)-1H-indol-2-yl]-7-methoxy-1H-1,3-benzodiazol-1-yl}methyl)-1H-pyrazol-1-yl]-5-fluoropyridin-2-ol] as the molecule, how does the pIC50 read?
Answer: The pIC50 was 7.43.

Question: With `COc1cc(C(=O)N2C[C@H]3CC[C@@H]2[C@@H]3N)cc2nc(-c3cc4ccccc4n3CC3CC3)n(Cc3csc(C)n3)c12` [Example 269, (1R,4R,7R)-2-{2-[1-(cyclopropylmethyl)-1H-indol-2-yl]-7-methoxy-1-[(2-methyl-1,3-thiazol-4-yl)methyl]-1H-1,3-benzodiazole-5-carbonyl}-2-azabicyclo[2.2.1]heptan-7-amine] as the molecule, how does the pIC50 read?
Answer: The pIC50 was 6.90.

Question: With `COc1cc(C(=O)N2C[C@H]3CC[C@@H]2[C@@H]3N)cc2nc(-c3cc4cccnc4n3C)n(C[C@H]3CCN(c4ccnc(C#N)n4)C3)c12` [Example 210, 4-[(3S)-3-({5-[(1R,4R,7R)-7-amino-2-azabicyclo[2.2.1]heptane-2-carbonyl]-7-methoxy-2-{1-methyl-1H-pyrrolo[2,3-b]pyridin-2-yl}-1H-1,3-benzodiazol-1-yl}methyl)pyrrolidin-1-yl]pyrimidine-2-carbonitrile] as the molecule, how does the pIC50 read?
Answer: The pIC50 was 7.12.

Question: `COc1cc(C(=O)N2C[C@H]3CC[C@@H]2[C@@H]3N)cc2nc(-c3cc4cccnc4n3C)n(C[C@H]3CCN(c4cncc(C#N)c4)C3)c12` [Example 215, 5[(3S)-3-({5-[(1R,4R,7R)-7-amino-2-azabicyclo[2.2.1]heptane-2-carbonyl]-7-methoxy-2-{1-methyl-1H-pyrrolo[2,3-b]pyridin-2-yl}-1H-1,3-benzodiazol-1-yl}methyl)pyrrolidin-1-yl]pyridine-3-carbonitrile] was tested. Which pIC50 did it give?
Answer: Its pIC50 is 6.83.

Question: With `COc1cc(C(=O)N2CC3CCC2[C@@H]3N)cc2nc(-c3cc4ccccc4n3CC3CC3)n(C[C@H]3CCN(c4ccnc(C)n4)C3)c12` (stereo partly drawn) [Example 224, (1R.,4R,7R)-2-{2-[1-(cyclopropylmethyl)-1H-indol-2-yl]-7-methoxy-1-{[(3S)-1-(2-methylpyrimidin-4-yl)pyrrolidin-3-yl]methyl}-1H-1,3-benzodiazole-5-carbonyl}-2-azabicyclo[2.2.1]heptan-7-amine] as the molecule, how does the pIC50 read?
Answer: The pIC50 was 7.72.

Question: With `COc1cc(C(=O)N2C[C@H](N)CC[C@@H]2C)cc2nc(-c3cc4ccccc4n3CC3CC3)n(Cc3cnn(C)c3)c12` [Example 251, ((2S,5R)-5-amino-2-methylpiperidin-1-yl)(2-(1-(cyclopropylmethyl)-1H-indol-2-yl)-7-methoxy-1-((1-methyl-1H-pyrazol-4-yl)methyl)-1H-benzo[d]imidazol-5-yl)methanone] as the molecule, how does the pIC50 read?
Answer: Its pIC50 is 7.32.

Question: With `COc1cc(C(=O)N2C[C@H]3CC[C@@H]2[C@@H]3N)cc2nc(-c3cc4ccccc4n3C)n(CC3CNC3)c12` [Example 308, (1R,4R,7R)-2-{1-[(azetidin-3-yl)methyl]-7-methoxy-2-(1-methyl-1H-indol-2-yl)-1H-1,3-benzodiazole-5-carbonyl}-2-azabicyclo[2.2.1]heptan-7-amine] as the molecule, how does the pIC50 read?
Answer: Its pIC50 is 6.27.

Question: How did the pIC50 turn out when `COc1cc(C(=O)N2C[C@H]3CC[C@@H]2[C@@H]3N)cc2nc(-c3cc4cccnc4n3CC3CC3)n(C3CN(C(=O)c4ccncn4)C3)c12` [Example 100, (1R,4R,7R)-2-{2-[1-(cyclopropylmethyl)-1H-pyrrolo[2,3-b]pyridin-2-yl]-7-methoxy-1-[1-(pyrimidine-4-carbonyl)azetidin-3-yl]-1H-1,3-benzodiazole-5-carbonyl}-2-azabicyclo[2.2.1]heptan-7-amine] was run?
Answer: Its pIC50 is 6.93.

Question: With `COc1cc(C(=O)N2C[C@H]3CC[C@@H]2[C@@H]3N)cc2nc(-c3cc4ccccc4n3CC3CC3)n(CC3CN(C(=O)c4ccc(C#N)c(F)c4)C3)c12` [Example 135, 4-[3-({5-[(1R,4R,7R)-7-amino-2-azabicyclo[2.2.1]heptane-2-carbonyl]-2-[1-(cyclopropylmethyl)-1H-indol-2-yl]-7-methoxy-1H-1,3-benzodiazol-1-yl}methyl)azetidine-1-carbonyl]-2-fluorobenzonitrile] as the molecule, how does the pIC50 read?
Answer: The pIC50 was 8.10.

Question: With `COc1cc(C(=O)N2C[C@H](N)C[C@@H](F)C2)cc2nc(-c3cc4cccnc4n3CC3CC3)n(Cc3cnn(-c4ccc(C#N)cn4)c3)c12` [Example 386, 6-[4-({5-[(3R,5R)-3-amino-5-fluoropiperidine-1-carbonyl]-2-[1-(cyclopropylmethyl)-1H-pyrrolo[2,3-b]pyridin-2-yl]-7-methoxy-1H-1,3-benzodiazol-1-yl}methyl)-1H-pyrazol-1-yl]pyridine-3-carbonitrile] as the molecule, how does the pIC50 read?
Answer: The pIC50 was 7.38.

Question: How did the pIC50 turn out when `COc1cc(C(=O)N2C[C@H]3CC[C@@H]2[C@@H]3N)cc2nc(-c3cc4cccnc4n3CC3CC3)n(C3CN(c4cnc(C#N)nc4)C3)c12` [Example 75, 5-(3-{5-[(1R,4R,7R)-7-amino-2-azabicyclo[2.2.1]heptane-2-carbonyl]-2-[1-(cyclopropylmethyl)-1H-pyrrolo[2,3-b]pyridin-2-yl]-7-methoxy-1H-1,3-benzodiazol-1-yl}azetidin-1-yl)pyrimidine-2-carbonitrile] was run?
Answer: The pIC50 was 6.67.

Question: `COc1cc(C(=O)N2CC3CCC2[C@@H]3N)cc2nc(-c3cc4ccccc4n3CC3CC3)n(C[C@H]3CCN(c4cncc(C#N)c4)C3)c12` (stereo partly drawn) [Example 225, 5-[(3S)-3-({5-[(1R,4R,7R)-7-amino-2-azabicyclo[2.2.1]heptane-2-carbonyl]-2-[1-(cyclopropylmethyl)-1H-indo1-2-yl]-7-methoxy-1H-1,3-benzodiazol-1-yl}methyl)pyrrolidin-1-yl]pyridine-3-carbonitrile] was tested. Which pIC50 did it give?
Answer: The pIC50 was 7.59.

Question: How did the pIC50 turn out when `COc1cc(C(=O)N2CC3CCC2[C@@H]3N)cc2nc(-c3cc4ccccc4n3CC3CC3)n(CC3CN(C(=O)c4ccc(C(F)(F)F)cc4)C3)c12` (stereo partly drawn) [Example 420, (7R)-2-{2-[1-(cyclopropylmethyl)-1H-indol-2-yl]-7-methoxy-1-({1-[4-(trifluoromethyl)benzoyl]aze-tidin-3-yl}methyl)-1H-1,3-benzodiazole-5-carbonyl}-2-azabicyclo[2.2.1]heptan-7-amine] was run?
Answer: Its pIC50 is 7.70.

Question: How did the pIC50 turn out when `COc1cc(C(=O)N2C[C@H]3CC[C@@H]2[C@@H]3N)cc2nc(-c3cc4ccccc4n3CC3CC3)n(CC3CN(C(=O)c4ccc(C)cc4)C3)c12` [Example 156, (1R,4R,7R)-2-{2-[1-(cyclopropylmethyl)-1H-indol-2-yl]-7-methoxy-1-{[1-(4-methylbenzoyl)azetidin-3-yl]methyl}-1H-1,3-benzodiazole-5-carbonyl}-2-azabicyclo[2.2.1]heptan-7-amine] was run?
Answer: The pIC50 was 7.66.

Question: How did the pIC50 turn out when `COc1cc(C(=O)N2C[C@H]3CC[C@@H]2[C@@H]3N)cc2nc(-c3cc4cccnc4n3CC3CC3)n(C3CN(C(=O)c4ccc(Cl)nc4)C3)c12` [Example 99, (1R,4R,7R)-2-{1-[1-(6-chloropyridine-3-carbonyl)azetidin-3-yl]-2-[1-(cyclopropylmethyl)-1H-pyrrolo[2,3-b]pyridin-2-yl]-7-methoxy-1H-1,3-benzodiazole-5-carbonyl}-2-azabicyclo[2.2.1]heptan-7-amine] was run?
Answer: The pIC50 was 6.95.

Question: With `COc1cc(C(=O)N2C[C@H]3CC[C@@H]2[C@@H]3N)cc2nc(-c3cc4cccnc4n3CC3CC3)n(CC3CN(c4cncc(C#N)n4)C3)c12` [Example 3, 6-(3-((5-((1R,4R,7R)-7-amino-2-azabicyclo[2.2.1]heptane-2-carbonyl)-2-(1-(cyclopropylmethyl)-1H-pyrrolo[2,3-b]pyridin-2-yl)-7-methoxy-1H-benzo[d]imidazol-1-yl)methyl)azetidin-1-yl)pyrazine-2-carbonitrile] as the molecule, how does the pIC50 read?
Answer: Its pIC50 is 7.26.

Question: How did the pIC50 turn out when `COc1cc(C(=O)N2CCC[C@@H](N)C2)cc2nc(-c3cc4cccnc4n3CC3CC3)n(CCNS(C)(=O)=O)c12` [Example 292, N-(2-{5-[(3R)-3-aminopiperidine-1-carbonyl]-2-[1-(cyclopropylmethyl)-1H-pyrrolo[2,3-b]pyridin-2-yl]-7-methoxy-1H-1,3-benzodiazol-1-yl}ethyl)methanesulfonamide] was run?
Answer: The pIC50 was 5.69.
